PMC6295861, “Privileged Structures and Polypharmacology within and between Protein Families” (ACS Medicinal Chemistry Letters, 2018)
Several values for one entry are separate records, joined by “and”; a condition that tells them apart may be missing. Equal entries are not always repeated. Each block holds one compound with its values, some of them ahead of it.

How the values were obtained:
[1] = target: T1, TAOK1 (Homo sapiens, UniProt Q7L7X3); experiment: Radio labeled filter binding kinase assay, TAOK1; format: biochemical; conditions: mean of duplicates
T1 sequence (Q7L7X3 1-1001): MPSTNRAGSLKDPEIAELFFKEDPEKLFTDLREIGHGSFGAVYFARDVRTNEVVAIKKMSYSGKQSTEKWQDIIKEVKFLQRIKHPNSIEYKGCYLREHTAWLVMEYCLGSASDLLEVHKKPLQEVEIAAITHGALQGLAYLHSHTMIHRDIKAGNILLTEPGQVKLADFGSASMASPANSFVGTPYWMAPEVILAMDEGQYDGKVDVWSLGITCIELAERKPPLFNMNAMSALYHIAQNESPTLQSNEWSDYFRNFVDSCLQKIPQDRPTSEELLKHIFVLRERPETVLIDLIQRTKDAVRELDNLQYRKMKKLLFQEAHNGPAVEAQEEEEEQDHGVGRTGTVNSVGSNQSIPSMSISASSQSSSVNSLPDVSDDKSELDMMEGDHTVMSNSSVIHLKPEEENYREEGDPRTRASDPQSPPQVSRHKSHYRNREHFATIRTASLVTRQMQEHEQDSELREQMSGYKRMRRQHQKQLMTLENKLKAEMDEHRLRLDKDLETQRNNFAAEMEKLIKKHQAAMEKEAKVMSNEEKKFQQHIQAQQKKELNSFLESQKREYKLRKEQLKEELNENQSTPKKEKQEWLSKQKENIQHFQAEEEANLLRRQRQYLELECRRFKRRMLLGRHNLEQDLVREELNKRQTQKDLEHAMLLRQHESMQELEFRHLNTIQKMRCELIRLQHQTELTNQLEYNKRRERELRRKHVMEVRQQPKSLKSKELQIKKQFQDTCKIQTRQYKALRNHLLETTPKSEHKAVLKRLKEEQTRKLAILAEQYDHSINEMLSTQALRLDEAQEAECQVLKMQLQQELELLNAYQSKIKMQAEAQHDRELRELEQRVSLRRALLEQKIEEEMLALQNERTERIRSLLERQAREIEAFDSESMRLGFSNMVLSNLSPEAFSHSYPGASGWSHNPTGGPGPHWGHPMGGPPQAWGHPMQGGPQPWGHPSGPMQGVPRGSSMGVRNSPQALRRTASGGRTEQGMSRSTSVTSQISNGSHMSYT

[2] = target: HIPK2 (Homo sapiens, UniProt Q9H2X6); experiment: Radio labeled filter binding kinase assay, HIPK2; format: biochemical
[3] = target: cyclin-dependent kinase 9 (CDK9); design: method as in PMID 27746890; conditions: cited from earlier work
[4] = target: B-Raf (WT) (Homo sapiens, UniProt P15056); experiment: B-Raf Z'-LYTE cascade kinase assay (SelectScreen); format: biochemical; conditions: ATP 100 μM, points 1 and 2, listed as CCT363294-01
Sequence of B-Raf (WT) (P15056 whole entry): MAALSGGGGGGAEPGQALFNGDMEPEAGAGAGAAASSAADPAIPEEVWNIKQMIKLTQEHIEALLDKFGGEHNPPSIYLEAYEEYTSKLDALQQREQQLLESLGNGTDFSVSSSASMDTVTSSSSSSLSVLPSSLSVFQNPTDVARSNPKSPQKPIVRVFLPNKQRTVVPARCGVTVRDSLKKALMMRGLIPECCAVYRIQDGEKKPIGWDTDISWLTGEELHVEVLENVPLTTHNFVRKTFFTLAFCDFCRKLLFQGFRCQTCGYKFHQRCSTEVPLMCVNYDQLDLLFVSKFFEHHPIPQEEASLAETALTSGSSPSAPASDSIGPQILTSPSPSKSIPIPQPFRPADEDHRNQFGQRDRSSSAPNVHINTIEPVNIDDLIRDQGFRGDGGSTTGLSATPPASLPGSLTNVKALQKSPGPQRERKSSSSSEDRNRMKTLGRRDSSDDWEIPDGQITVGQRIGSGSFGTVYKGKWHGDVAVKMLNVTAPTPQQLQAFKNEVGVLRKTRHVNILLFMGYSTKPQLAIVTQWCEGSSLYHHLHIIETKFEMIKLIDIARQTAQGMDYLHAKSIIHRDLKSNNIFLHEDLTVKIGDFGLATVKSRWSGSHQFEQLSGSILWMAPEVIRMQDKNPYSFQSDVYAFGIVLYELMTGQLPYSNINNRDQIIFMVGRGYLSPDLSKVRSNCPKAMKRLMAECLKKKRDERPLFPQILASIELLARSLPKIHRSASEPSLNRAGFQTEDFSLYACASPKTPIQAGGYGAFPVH

Sequence of HIPK2 (Q9H2X6 whole entry): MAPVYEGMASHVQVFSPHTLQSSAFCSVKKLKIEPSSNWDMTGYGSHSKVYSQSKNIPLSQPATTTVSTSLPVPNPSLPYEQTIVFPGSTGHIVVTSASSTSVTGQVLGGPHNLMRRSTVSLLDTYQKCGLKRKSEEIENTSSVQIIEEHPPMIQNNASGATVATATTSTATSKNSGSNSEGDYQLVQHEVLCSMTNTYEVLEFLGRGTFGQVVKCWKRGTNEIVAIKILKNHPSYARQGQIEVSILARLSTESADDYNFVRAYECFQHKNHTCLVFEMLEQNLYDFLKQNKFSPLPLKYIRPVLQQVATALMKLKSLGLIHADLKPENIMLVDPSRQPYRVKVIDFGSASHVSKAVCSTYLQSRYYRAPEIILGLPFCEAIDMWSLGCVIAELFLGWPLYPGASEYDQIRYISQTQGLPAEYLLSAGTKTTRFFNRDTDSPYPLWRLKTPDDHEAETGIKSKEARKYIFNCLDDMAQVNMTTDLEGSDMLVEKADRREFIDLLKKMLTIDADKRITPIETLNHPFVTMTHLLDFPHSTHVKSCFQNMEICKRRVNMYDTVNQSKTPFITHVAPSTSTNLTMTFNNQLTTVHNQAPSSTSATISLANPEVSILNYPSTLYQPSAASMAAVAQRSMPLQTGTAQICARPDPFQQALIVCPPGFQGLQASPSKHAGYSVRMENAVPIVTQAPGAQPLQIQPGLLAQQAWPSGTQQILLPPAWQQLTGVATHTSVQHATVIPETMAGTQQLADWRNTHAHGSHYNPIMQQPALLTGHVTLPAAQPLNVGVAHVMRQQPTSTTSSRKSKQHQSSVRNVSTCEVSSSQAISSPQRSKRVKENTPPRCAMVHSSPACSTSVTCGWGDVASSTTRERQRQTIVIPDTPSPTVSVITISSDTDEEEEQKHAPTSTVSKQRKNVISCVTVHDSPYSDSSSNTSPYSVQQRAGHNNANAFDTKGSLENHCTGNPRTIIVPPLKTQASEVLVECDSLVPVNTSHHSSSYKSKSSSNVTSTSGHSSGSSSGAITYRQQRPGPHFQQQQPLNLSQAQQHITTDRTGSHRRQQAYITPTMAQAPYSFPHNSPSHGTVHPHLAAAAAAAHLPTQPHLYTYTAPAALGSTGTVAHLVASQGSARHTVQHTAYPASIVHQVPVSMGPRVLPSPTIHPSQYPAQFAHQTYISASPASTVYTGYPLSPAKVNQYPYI

- activity at 0.0003 µM ([1]; 0.0003 µM compound): 108%
- activity at 0.001 µM ([1]; 0.001 µM compound): 95%
- activity at 0.003 µM ([1]; 0.003 µM compound): 111%
- activity at 0.01 µM ([1]; 0.01 µM compound): 116%
- activity at 0.03 µM ([1]; 0.03 µM compound): 109%
- activity at 0.1 µM ([1]; 0.1 µM compound): 82%
- activity at 0.3 µM ([1]; 0.3 µM compound): 69%
- activity at 1 µM ([1]; 1 µM compound): 46%
- activity at 3 µM ([1]; 3 µM compound): 20%
- activity at 10 µM ([1]; 10 µM compound): 11%
- activity at 0.0003 µM ([2]; 0.0003 µM compound, duplicates): 99%
- HIPK2 % activity ([2]; 0.0003 µM compound, duplicates, listed as CCT250006, 0.0003 µM): 95%
- activity at 0.001 µM ([2]; 0.001 µM compound, duplicates): 94%
- HIPK2 % activity ([2]; 0.001 µM compound, duplicates, listed as CCT250006, 0.001 µM): 107%
- HIPK2 % activity ([2]; 0.003 µM compound, duplicates, listed as CCT250006, 0.003 µM): 95% and 121%
- activity at 0.01 µM ([2]; 0.01 µM compound, duplicates): 86%
- HIPK2 % activity ([2]; 0.01 µM compound, duplicates, listed as CCT250006, 0.01 µM): 88%
- activity at 0.03 µM ([2]; 0.03 µM compound, duplicates): 43%
- HIPK2 % activity ([2]; 0.03 µM compound, duplicates, listed as CCT250006, 0.03 µM): 39%
- activity at 0.1 µM ([2]; 0.1 µM compound, duplicates): 26%
- HIPK2 % activity ([2]; 0.1 µM compound, duplicates, listed as CCT250006, 0.1 µM): 35%
- activity at 0.3 µM ([2]; 0.3 µM compound, duplicates): 9%
- HIPK2 % activity ([2]; 0.3 µM compound, duplicates, listed as CCT250006, 0.3 µM): 11%
- activity at 1 µM ([2]; 1 µM compound, duplicates): 6%
- HIPK2 % activity ([2]; 1 µM compound, duplicates, listed as CCT250006, 1 µM): 5%
- HIPK2 % activity ([2]; 3 µM compound, duplicates, listed as CCT250006, 3 µM): 1% and 4%
- HIPK2 % activity ([2]; 10 µM compound, duplicates, listed as CCT250006, 10 µM): 1% and 5%
- IC50 ([2]; SI Table S5, unit inferred, one per duplicate curve, read-out: HIPK2 IC50, fitted values above the IC50(µM) line): 0.0272 µM
SMILES: c1cnc2ncn(-c3cc(Nc4ccc(OCCN5CCCCC5)cn4)ncn3)c2c1 [Compd 1]
- IC50 [3]: ≤ 3 nM

- % Inhibition BRAF ([4]; 1.52 nM compound): -10% and -14%
- % Inhibition BRAF ([4]; 13.7 nM compound): -17% and -16%
- % Inhibition BRAF ([4]; 41.2 nM compound): -36% and -33%
- % Inhibition BRAF ([4]; 123 nM compound): -22% and -28%
- % Inhibition BRAF ([4]; 1110 nM compound): -4% and -8%
- % Inhibition BRAF ([4]; 3330 nM compound): 6% and -3%
SMILES: CC(C)(C)N1CCN(Cc2ccc3cc(C(=O)Nc4cc(NC(=O)c5ccc6c(c5)OCCO6)ccc4Cl)ccc3n2)CC1 [Compd 8, 2-((4-(tert-butyl)piperazin-1-yl)methyl)-N-(2-chloro-5-(2,3-dihydrobenzo[b][1,4]dioxine-6-carboxamido)phenyl)quinoline-6-carboxamide]
